# Measurements from US20230381193A1, “METHODS FOR THE TREATMENT OF CHILDHOOD-ONSET FLUENCY DISORDER” (Noema Pharma AG, priority 2021, published 2023).
# Where two headings read alike, the source gives them in different places.
# Assays:
# [1] = Preliminary forced degradation study (acidic, basic, oxidative, photolytic stress; excipient compatibility); type: physicochemical
# Experimental: Stability: Preliminary forced degradation study of the crystalline form of the free base of the compound of Formula I in acidic, basic, oxidative, and photolytic stress conditions was conducted to investigate the viability of the crystalline form in various stress conditions. Since the solubility of the compound of Formula I was low in the standard solvent ethanol, ethanol was replaced by N-methyl-2-pyrrolidone (NMP).
# The crystalline form of the free base of the compound of Formula I was stable for up to 8 days in solid state at 80° C. and in solution at pH 3 to pH 7 at RT. […] The crystalline form was stable after exposure to light in solid state.
# [2] = Preliminary solid state stability (UPLC analysis); type: physicochemical
# Experimental: A defined amount of the crystalline form of the free base of the compound of Formula I (0.2-0.8 mg) was weighed into a 1.8 mL HPLC vial and stored open (75% RH) or closed (ambient) at the temperature and the time indicated. After incubation, compound was dissolved in 1-1.5 mL NMP to a final concentration of 0.2-0.5 mg/mL and submitted to UPLC analysis (254 nm).
# [3] = Stability in suspension vehicle and parenteral formulation; type: physicochemical; conditions: 0.5% HPC/1% Tween 80, up to 5 weeks at RT
# Experimental: For parenteral administration, a 30% Kleptose formulation (1.5 mg/ml, physiologic osmolality, pH 6.2), with a stability of at least 4 weeks at 40° C. was developed.
# [4] = Solubility of the crystalline form; type: physicochemical; conditions: for solubility: thermodynamic from solid
# Experimental: Solubility in simulated gastric fluid (SGF), fasted state simulated intestinal fluid (FaSSIF), and fed state simulated intestinal fluid (FeSSIF) was 0.019 mg/ml, 0.006 mg/mL, and 0.022 mg/mL, respectively. Solubility increased 50-100-fold in the presence of surfactants (e.g., Tween-80, sodium dodecyl sulfate, dioctyl sulfosuccinate, or Pluronic F68) and cyclodextrins; however it was still rather low.
# [5] = Thermodynamic stability of crystalline form; type: physicochemical; conditions: at least between 20° C. and 60° C.
# SD rats [6] = assay: Oral glucose tolerance test, second study (acute treatment); type: in vivo, rat; conditions: 10 mg/kg; for Glucose tolerance (oral glucose tolerance test): glucose 2 g/kg per os 1 hour post treatment
# Experimental: The second study assessed the impact of acute treatment with the compound of Formula I. The study was conducted on 9-week male SD rats, which were fed with chow diet.
# [7] = test system: adult male patients with COFD; assay: Study A: open-label Phase IIa 6-week study of safety and efficacy in COFD; type: in vivo, human; conditions: 5 to 15 mg, once daily, oral; study design criterion
# Experimental: Provided below is an open-label, Phase IIa, multi-center, 6-week prospective study to evaluate the safety and efficacy of the compound of Formula I at a daily dose range of 5 mg to 15 mg in adult male patients with COFD.
# SD rats [8] = assay: Oral glucose tolerance test, third study (sub-chronic, 8 days, alone or in combination); type: in vivo, rat
# Experimental: The third study evaluated sub-chronic (8 days) effects of the compound of Formula I alone or in combination with Olanzapine. […] The insulin was measured at time 0 only.
# SD rats [9] = assay: Oral glucose tolerance test, first study (acute treatment); conditions: 3 and 10 mg/kg
# Experimental: The study was conducted on 10-week male SD rats fed with chow diet. The glucose challenge was performed 1 hour post last treatment. The glucose load was done per os per gavage (2 g/kg BW), and the formulation was made in saline. The blood glucose and plasma insulin were measured at 0 (before challenge), +15, +30, +60 and +120 minutes. Blood was sampled in EDTA coated tubes, and the blood samples were kept on ice until centrifuged at 4° C. ELISA for Insulin (Mercodia, Uppsala Sweden) and Fluorometric for measuring glucose (AccuCheck System) were used for the analysis. Data Analysis was done using the software JMP for Windows (Version 5.01, SAS institute Inc., SAS Campus Drive, Cary, NC 27513). Analysis of Variance ANOVA (alpha 0.05 and 0.01) followed by Dunnett's test (comparison vs. Control).
compound,measurement,setting,value
"Cn1ncc(C(=O)N2CCOCC2)c1C(=O)Nc1ccn2nc(-c3ccccc3)nc2c1 [1-methyl-4-(morpholine-4-carbonyl)-N-(2-phenyl[1,2,4]triazolo[1,5-a]pyridin-7-yl)-1H-pyrazole-5-carboxamide]",Excipient compatibility (CompaS assay),[1],compatible with almost all excipients
same,Stability towards oxidation,[1]; 1 day,stable
same,Stability towards daylight,[1]; in solution,stable
same,Stability in the Suntest,"[1]; in solution, time dependent",moderately stable to unstable
same,Stability in solution,[1]; pH 3 to pH 7 at RT,stable
same,Stability in solution at higher or lower pH,[1]; pH above 7 or below 3,degradation was observed
same,Stability towards oxidation,[1]; prolonged exposure,some sensitivity
same,Stability after exposure to light,[1]; solid state,stable
same,Stability in solid state,"[1]; up to 8 days, 80° C.",stable
same,UPLC analysis (Area % main peak),[2]; 4 w 60° C.,100 Area %
same,UPLC analysis (Area % main peak),"[2]; 4 w, 4° C.",100 Area %
same,UPLC analysis (Area % main peak),"[2]; 4 w, 40° C.",100 Area %
same,UPLC analysis (Area % main peak),"[2]; 4 w, 40° C., 75% RH",100 Area %
same,UPLC analysis (Area % main peak),"[2]; 4 w, RT",100 Area %
same,Time stable in solid state,[2]; 40-60° C.,at least 4 weeks
same,UPLC analysis (Area % main peak),"[2]; 1 h, 80° C.",100 Area %
same,UPLC analysis (Area % main peak),"[2]; 1 d, 80° C.",100 Area %
same,UPLC analysis (Area % main peak),"[2]; 8 d, 80° C.",100 Area %
same,Degradation products,"[2]; solid state, various temperatures",< 0.5%
same,Particle growth and hydrate formation in suspension vehicle,[3],only minor particle growth and no hydrate formation
same,Stability in suspension vehicle,[3],stable
same,solubility,"[4]; aqueous solutions, 22 °C, aqueous buffer, pH>3, read-out: Solubility in aqueous solutions",< 4 µg/mL
same,solubility,"[4]; fasted state simulated intestinal fluid (FaSSIF), 22 °C, fassif, read-out: Solubility in fasted state simulated intestinal fluid (FaSSIF)",6 µg/mL
same,solubility,"[4]; fed state simulated intestinal fluid (FeSSIF), 22 °C, fessif, read-out: Solubility in fed state simulated intestinal fluid (FeSSIF)",22 µg/mL
same,Solubility increase,"[4]; in the presence of surfactants (e.g., Tween-80, sodium dodecyl sulfate, dioctyl sulfosuccinate, Pluronic F68) and cyclodextrins",50-100 fold
same,solubility,"[4]; organic solvents, organic solvent or mixture, ambient temperature (22° C.), read-out: Solubility in most of the tested organic solvents",< 50000 µg/mL
same,solubility,"[4]; simulated gastric fluid (SGF), 22 °C, simulated gastric fluid, read-out: Solubility in simulated gastric fluid (SGF)",19 µg/mL
same,Thermodynamic stability,[5],thermodynamically stable
"Cn1ncc(C(=O)N2CCOCC2)c1C(=O)Nc1ccn2nc(-c3ccccc3)nc2c1 [compound of Formula I, 1-methyl-4-(morpholine-4-carbonyl)-N-(2-phenyl[1,2,4]triazolo[1,5-a]pyridin-7-yl)-1H-pyrazole-5-carboxamide]",Glucose tolerance (oral glucose tolerance test),SD rats [6],did not induce any change
same,Key secondary: Subject-rated Self Assessment of Stuttering,[7],Key secondary: Superior efficacy on the Subject-rated Self
same,Safety: effect on blood glucose and lipids,[7],No or minimal effect on blood glucose and lipids
same,Safety: patients with significant weight gain (greater than 7% versus baseline),[7],Less than 5% of patients with significant weight gain (greater
same,Secondary: percent of patients with stuttering freedom,[7],Secondary: Superior percent of patients with stuttering
same,Fasting blood glucose,"SD rats [8]; repeated treatment, 8 days, 0.3 mg/kg",no change
same,Glucose tolerance (oral glucose tolerance test),"SD rats [8]; repeated treatment, 8 days, 0.3 mg/kg, alone",slight glucose tolerance improvement
"Cc1cc2c(s1)Nc1ccccc1N=C2N1CCN(C)CC1 [Olanzapine, 2-Methyl-4-(4-methyl-1-piperazinyl)-10H-thieno[2,3-b][1,5]benzodiazepine]",Glucose tolerance (oral glucose tolerance test),SD rats [6],glucose intolerance
same,Fasting blood glucose,SD rats [6]; male SD rats,increase
same,Glucose tolerance (oral glucose tolerance test),SD rats [9]; glucose 2 g/kg per os 1 hour post treatment,dose-dependent glucose intolerance
same,Fasting blood glucose,SD rats [9]; male SD rats,dose-dependent increase
same,Fasting insulin,SD rats [9]; male SD rats,dose-dependent increase
same,Glucose tolerance (oral glucose tolerance test),"SD rats [8]; acute treatment, 10 mg/kg, glucose 2 g/kg per os",glucose intolerance
same,Fasting blood glucose,"SD rats [8]; acute treatment, 10 mg/kg, male SD rats",increase
